Patent US20230242843A1, “GREEN SOLVENT, LAUNDRY COMPOSITION COMPRISING SAME, AND WASHING MACHINE” (LG HOUSEHOLD & HEALTH CARE LTD., priority 2020, published 2023)

What was measured:
[1] = log P (octanol-water fractionation coefficient); settings: for logP: octanol/water
[2] = Composition identification of the solvent after 30 times of washing with solvent reuse; format: physicochemical; settings: for Content in solvent collected in the solvent storage tank after final washing: initial 96.0 wt %
Experimental: The washing machines according to Examples and Comparative Examples according to the present disclosure were prepared, and washing was performed under the same conditions. The same type of fibers was put into each washing machine, and a composition including a compound according to the Chemical Formula 1 (wherein R1 and R2 are alkyl having 1 carbon atom, and R3 is hydrogen) was used as a laundry solvent.
At the first washing, the solvent was supplied, the washing was performed for 15 minutes, the solvent was collected while undergoing a drying process, another fiber was put into the washing machine, and the collected solvent was re-supplied for washing. 30 times of washing in total were performed in the same way, without replacement of the solvent storage tank or cartridge during the washing process.

Row | SMILES | logP [1] | further results
1 | CCCCOCCOCCO [2-(2-butoxyethoxy)ethanol] | 0.65 | –
2 | CCOC(=O)c1ccccc1C(=O)O [2-(ethoxycarbonyl)benzoic acid] | 1.8 | –
3 | CC1(C)OCC(CO)O1 (stereo not drawn) [Chemical Formula 1, solketal] | – | Log P ([1]; octanol-water): approximately 1.07; Amount decomposed into acetone and glycerol ([2]; 30 washings, conventional washing machine (Comparative Example 2-1)): approximately 30 wt %; Content in solvent collected in the solvent storage tank after final washing ([2]; 30 washings, washing machine of Comparative Example 2-1 (conventional)): 69.0 wt %; Content in solvent collected in the solvent storage tank after final washing ([2]; 30 washings, washing machine of Example 2-1): 91.4 wt %; Content in solvent collected in the solvent storage tank after final washing ([2]; 30 washings, washing machine of Example 2-2): 92.7 wt %; Content in solvent collected in the solvent storage tank after final washing ([2]; 30 washings, washing machine of Example 2-3): 94.1 wt %; Content in solvent collected in the solvent storage tank after final washing ([2]; 30 washings, washing machine of Example 2-4): 94.9 wt %; Content in solvent collected in the solvent storage tank after final washing ([2]; 30 washings, washing machine of Example 2-5): 95.5 wt %; Amount decomposed ([2]; after 30 times of washing, washing machine according to an example embodiment): less than 10 wt %
4 | OCCO [Ethylene glycol, reference compound] | -1.93 | –
5 | CC(C)=CCC/C(C)=C/CO [Geraniol] | 3.47 | –

The next lines start with results.

Row | logP [1] | SMILES | further results
6 | 2.19 | Cc1cc(O)c(C)c(O)c1C(=O)O [2,4-Dihydroxy-3,6-dimethylbenzoic acid] | –
7 | 1.63 | Cc1nc(N(C)C)nc(O)c1C [2-(dimethylamino)-5,6-dimethylpyrimidin-4-ol] | –
8 | 4.68 | CCCCCCC(C=O)=Cc1ccccc1 [Alpha-hexyl cinnamaldehyde, reference compound] | –
9 | 1.13 | Oc1cccc(O)c1 [Resorcinol] | –
10 | 0.71 | COc1cc(C=O)ccc1O [Vanillin] | –
